From PubChem BioAssay (NCI) come the findings set out here.

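Five concentrations, 48 hours, 96-well plates. The concentration for full growth arrest is given as TGI.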 A value given as a limit tells only on which side of the number the result lay.

The first assay deals with A549 NSCLC. The assay can be described thus: NCI-60 cell line screen, 48 h.
As for `C1CSCCSCCCS[C@@H]2CCCCC2SC1` (some centres undefined), the TGI was over 100 µM.
With `CCOC(=O)c1cn(CC)c(=O)n2c1nc1ccccc12`, the TGI was over 100 µM.
The same measure, in the same setting: the value for `NNc1nnc(CCCCCCCCc2nnc(NN)n2N)n1N` was over 100 µM.
Still for that read-out and setting: then `COc1ccc(-c2oc3cc(-c4cc5oc(-c6ccc(OC)cc6)c(-c6ccc(OC)cc6)c5cc4OC)c(OC)cc3c2-c2ccc(OC)cc2)cc1`, with over 100 µM.
Same read-out and setting: the value for `O=C(NCCC1CNc2ccccc21)OCc1ccccc1` (centres undefined) was over 100 µM.
`CCN1/C(=C/C#C/C(C)=C\c2sc3ccc(Cl)cc3[n+]2CC)Sc2ccc(Cl)cc21` came in with a TGI of 22 µM.
Same read-out and setting: the value for `c1cc(-c2ccc(-c3ccsc3)s2)cs1` was 64.5 µM.
The same measure, in the same setting: then `CSc1nncc(-c2cc3c(c(SC)n2)CCCC3)n1`, with over 100 µM; and `O=C1c2ccccc2N2OC3(N4CCOCC4)CCCC3C12c1ccccc1` (centres undefined), with over 100 µM; and `Cn1c(CNc2ccc(-c3n[nH]c(=S)n3C)cc2)n[nH]c1=S`, with over 100 µM.
The same measure, in the same setting: then `COc1cc(C2c3cc4c(cc3OC(NN)C2C)OCO4)cc(OC)c1O` (centres undefined), with 53.5 µM; and `COC(=O)[C@@]12OC[C@]34C([C@@H](O)C1O)[C@@]1(C)CC(=O)C(OC(=O)CC(C)C(F)(F)F)=C(C)C1C[C@H]3OC(=O)[C@H](O)[C@H]42` (some centres undefined), with over 62.5 µM.
Regarding `CC(N)(CC(O)(C(F)(F)Cl)C(F)(F)Cl)C(=O)O` (centres undefined), the TGI was over 10 µM.
Same read-out and setting: the value for `NC1=NC2(COC(c3ccccc3)(c3ccccc3)c3ccccc3)OC(COC(c3ccccc3)(c3ccccc3)c3ccccc3)C(O)C2O1` (centres undefined) was over 100 µM; that for `CC1(C)O[C@@H]2[C@@H](COC(C)(C)O[C@H]2C2SCCCS2)O1` was over 100 µM.
Still for that read-out and setting: the value for `O=C(O)CCCc1ccc2c(c1)CC1(C2)Cc2cc3c(cc2C1)CCCC3` was 67 µM; that for `CCOC(=O)C1(C/C=C\CBr)CCCC1=O` (centres undefined) was over 100 µM; that for `COc1ccc(OC)c2sc(N3C(=O)/C(=C/c4cccc(Oc5ccccc5)c4)N=C3c3ccccc3)nc12` was over 100 µM.
Same read-out and setting: the value for `Cc1cc(O)c(/C=N/C(N)=S)c(=O)o1` was over 100 µM; that for `Cc1[nH]n(-c2nc3c(c(=O)[nH]2)CCCC3)c(=O)c1CCO` was over 100 µM.
As for `O=c1c(-c2ccccc2)nnc2n(Cc3ccccc3)c3ccccc3n12`, the TGI is over 100 µM.
On to `Cc1cc2nc3c(C#N)c(-c4ccccc4)/c(=C\Nc4ccc(F)cc4)c(=O)n3c2cc1C`, for which the TGI was over 100 µM.
Same read-out and setting: then `O=C(c1ccccc1)C1(Br)S(=O)(=O)OCCOS1(=O)=O`, with over 100 µM.
Still for that read-out and setting: the value for `C1CCC(N=C2N(C3CCCCC3)C(=NC3CCCCC3)N2C2CCCCC2)CC1` was over 100 µM; that for `O=S(=O)(/N=C(\NO)Nc1ccc(Cl)cc1)c1cc(C(F)(F)F)cc(C(F)(F)F)c1` was 34.5 µM.

The subject of a further assay is HCT-116 colon. Nature of the assay: NCI-60 cell line screen, 48 h.
Consider `C1CSCCSCCCS[C@@H]2CCCCC2SC1` (some centres undefined), for which the TGI is over 100 µM.
Compound `CCOC(=O)c1cn(CC)c(=O)n2c1nc1ccccc12` showed a TGI of over 100 µM.
The same measure, in the same setting: then `NNc1nnc(CCCCCCCCc2nnc(NN)n2N)n1N`, with over 100 µM; and `COc1ccc(-c2oc3cc(-c4cc5oc(-c6ccc(OC)cc6)c(-c6ccc(OC)cc6)c5cc4OC)c(OC)cc3c2-c2ccc(OC)cc2)cc1`, with over 100 µM; and `O=C(NCCC1CNc2ccccc21)OCc1ccccc1` (centres undefined), with over 100 µM.
With `CCN1/C(=C/C#C/C(C)=C\c2sc3ccc(Cl)cc3[n+]2CC)Sc2ccc(Cl)cc21`, the TGI worked out at 12.3 µM.
On the same count and under the same terms, the value for `c1cc(-c2ccc(-c3ccsc3)s2)cs1` was over 100 µM; that for `CC(=O)c1ccc(N=NN2CCCC2)cc1` was over 100 µM.
On to `CSc1nncc(-c2cc3c(c(SC)n2)CCCC3)n1`, for which the TGI is over 100 µM.
As to `O=C1c2ccccc2N2OC3(N4CCOCC4)CCCC3C12c1ccccc1` (centres undefined), the TGI is over 100 µM.
On to `Cn1c(CNc2ccc(-c3n[nH]c(=S)n3C)cc2)n[nH]c1=S`, for which the TGI was over 100 µM.
`COc1cc(C2c3cc4c(cc3OC(NN)C2C)OCO4)cc(OC)c1O` (centres undefined) displayed a TGI of 20.1 µM.
Same read-out and setting: then `COC(=O)[C@@]12OC[C@]34C([C@@H](O)C1O)[C@@]1(C)CC(=O)C(OC(=O)CC(C)C(F)(F)F)=C(C)C1C[C@H]3OC(=O)[C@H](O)[C@H]42` (some centres undefined), with over 62.5 µM.
On the same count and under the same terms, then `CC(N)(CC(O)(C(F)(F)Cl)C(F)(F)Cl)C(=O)O` (centres undefined), with over 10 µM.
The same measure, in the same setting: the value for `NC1=NC2(COC(c3ccccc3)(c3ccccc3)c3ccccc3)OC(COC(c3ccccc3)(c3ccccc3)c3ccccc3)C(O)C2O1` (centres undefined) was over 100 µM; that for `CC1(C)O[C@@H]2[C@@H](COC(C)(C)O[C@H]2C2SCCCS2)O1` was over 100 µM; that for `O=C(O)CCCc1ccc2c(c1)CC1(C2)Cc2cc3c(cc2C1)CCCC3` was 8.11 µM.
For the compound `CCOC(=O)C1(C/C=C\CBr)CCCC1=O` (centres undefined), the TGI was 40 µM.
Same read-out and setting: the value for `COc1ccc(OC)c2sc(N3C(=O)/C(=C/c4cccc(Oc5ccccc5)c4)N=C3c3ccccc3)nc12` was over 100 µM; that for `Cc1cc(O)c(/C=N/C(N)=S)c(=O)o1` was over 100 µM.
Same read-out and setting: then `Cc1[nH]n(-c2nc3c(c(=O)[nH]2)CCCC3)c(=O)c1CCO`, with over 100 µM; and `O=c1c(-c2ccccc2)nnc2n(Cc3ccccc3)c3ccccc3n12`, with over 100 µM; and `Cc1cc2nc3c(C#N)c(-c4ccccc4)/c(=C\Nc4ccc(F)cc4)c(=O)n3c2cc1C`, with over 100 µM.
On the same count and under the same terms, the value for `O=C(c1ccccc1)C1(Br)S(=O)(=O)OCCOS1(=O)=O` was over 100 µM; that for `C1CCC(N=C2N(C3CCCCC3)C(=NC3CCCCC3)N2C2CCCCC2)CC1` was over 100 µM; that for `O=S(=O)(/N=C(\NO)Nc1ccc(Cl)cc1)c1cc(C(F)(F)F)cc(C(F)(F)F)c1` was 31.2 µM.

The next assay deals with HS 578T breast. Nature of the assay: NCI-60 cell line screen, 48 h.
Turning to `COc1ccc(-c2oc3cc(-c4cc5oc(-c6ccc(OC)cc6)c(-c6ccc(OC)cc6)c5cc4OC)c(OC)cc3c2-c2ccc(OC)cc2)cc1`, the TGI was over 100 µM.
Still for that read-out and setting: then `O=C(NCCC1CNc2ccccc21)OCc1ccccc1` (centres undefined), with over 100 µM; and `CCN1/C(=C/C#C/C(C)=C\c2sc3ccc(Cl)cc3[n+]2CC)Sc2ccc(Cl)cc21`, with 28.8 µM.
Same read-out and setting: then `c1cc(-c2ccc(-c3ccsc3)s2)cs1`, with over 100 µM; and `CC(=O)c1ccc(N=NN2CCCC2)cc1`, with over 100 µM; and `CC(N)(CC(O)(C(F)(F)Cl)C(F)(F)Cl)C(=O)O` (centres undefined), with over 10 µM.
Take `O=C(O)CCCc1ccc2c(c1)CC1(C2)Cc2cc3c(cc2C1)CCCC3`: the TGI is over 100 µM.
Same read-out and setting: the value for `CCOC(=O)C1(C/C=C\CBr)CCCC1=O` (centres undefined) was over 100 µM.
Same read-out and setting: then `COc1ccc(OC)c2sc(N3C(=O)/C(=C/c4cccc(Oc5ccccc5)c4)N=C3c3ccccc3)nc12`, with over 100 µM; and `Cc1cc(O)c(/C=N/C(N)=S)c(=O)o1`, with over 100 µM; and `Cc1[nH]n(-c2nc3c(c(=O)[nH]2)CCCC3)c(=O)c1CCO`, with over 100 µM.
In turn, `O=c1c(-c2ccccc2)nnc2n(Cc3ccccc3)c3ccccc3n12` had a TGI of over 100 µM.
Same read-out and setting: the value for `O=S(=O)(/N=C(\NO)Nc1ccc(Cl)cc1)c1cc(C(F)(F)F)cc(C(F)(F)F)c1` was 60.5 µM.
